Reference: PubChem BioAssay AID1963849 (Molecular Pharmacology Branch, DTP, NCI, 2024)

Test system: 299254-011-R-J1-PDC complex spheroid viability
Test: Anticancer human tumor 299254-011-R-J1-PDC patient-derived melanoma cell line growth inhibition [POLQ]
Conditions: for IC50: curve of first compound; for viability, T/C: stronger effect = lower value
Procedure, shortened: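 Patient-derived tumour cells were co-cultured with HUVEC and mesenchymal stem cells as multicellular spheroids at 37 °C. They were treated with POLQ inhibitors (novobiocin, ART-558, RP6685) alone or combined with other agents. Top concentrations were at or near clinical Cmax (otherwise 10 microM; SN-38 at 1 microM), decreasing in half-log steps.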

[1] = second compound 0.0316 µM, first compound 0.0316 µM
[2] = second compound 0.0316 µM, first compound 0.1 µM
[3] = second compound 0.0316 µM, first compound 0.316 µM
[4] = second compound 0.0316 µM, first compound 1 µM
[5] = second compound 0.1 µM, first compound 0.0316 µM
[6] = second compound 0.1 µM, first compound 0.1 µM
[7] = second compound 0.1 µM, first compound 0.316 µM
[8] = second compound 0.1 µM, first compound 1 µM
[9] = second compound 0.316 µM, first compound 0.0316 µM
[10] = second compound 0.316 µM, first compound 0.1 µM
[11] = second compound 0.316 µM, first compound 0.316 µM
[12] = second compound 0.316 µM, first compound 1 µM
[13] = second compound 1 µM, first compound 0.0316 µM
[14] = second compound 1 µM, first compound 0.1 µM
[15] = second compound 1 µM, first compound 0.316 µM
[16] = second compound 1 µM, first compound 1 µM
[17] = second compound 3.16 µM, first compound 0.0316 µM
[18] = second compound 3.16 µM, first compound 0.1 µM
[19] = second compound 3.16 µM, first compound 0.316 µM
[20] = second compound 3.16 µM, first compound 1 µM
[21] = second compound 10 µM, first compound 0.0316 µM
[22] = second compound 10 µM, first compound 0.1 µM
[23] = second compound 10 µM, first compound 0.316 µM
[24] = second compound 10 µM, first compound 1 µM
[25] = second compound 0.0316 µM, first compound 3.16 µM
[26] = second compound 0.0316 µM, first compound 10 µM
[27] = second compound 0.1 µM, first compound 3.16 µM
[28] = second compound 0.1 µM, first compound 10 µM
[29] = second compound 0.316 µM, first compound 3.16 µM
[30] = second compound 0.316 µM, first compound 10 µM
[31] = second compound 1 µM, first compound 3.16 µM
[32] = second compound 1 µM, first compound 10 µM
[33] = second compound 3.16 µM, first compound 3.16 µM
[34] = second compound 3.16 µM, first compound 10 µM
[35] = second compound 10 µM, first compound 3.16 µM
[36] = second compound 10 µM, first compound 10 µM
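Note: spheroids exposed to drugs for one week before measurement.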
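Throughout, for viability, T/C: percent viability relative to DMSO vehicle control taken as 100%.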

C=CCn1c(=O)c2cnc(Nc3ccc(N4CCN(C)CC4)cc3)nc2n1-c1cccc(C(C)(C)O)n1 + Cc1cccc(N(C)C(=O)C2C(O)CCN2c2nc(C)cc(C(F)(F)F)c2C#N)c1
IC50 (second compound 0.0316 µM): > 1000 nM
IC50 (second compound 0.1 µM): > 1000 nM
IC50 (second compound 0.316 µM): > 1000 nM
IC50 (second compound 1 µM): > 1000 nM
IC50 (second compound 3.16 µM): > 1000 nM
IC50 (second compound 10 µM): > 1000 nM
viability, T/C (second compound 0.0316 µM, first compound 0.00316 µM): 98.3%
viability, T/C (second compound 0.0316 µM, first compound 0.01 µM): 119%
viability, T/C [1]: 96%
viability, T/C [2]: 116%
viability, T/C [3]: 103%
viability, T/C [4]: 62.1%
viability, T/C (second compound 0.1 µM, first compound 0.00316 µM): 101%
viability, T/C (second compound 0.1 µM, first compound 0.01 µM): 103%
viability, T/C [5]: 106%
viability, T/C [6]: 103%
viability, T/C [7]: 90.2%
viability, T/C [8]: 67.4%
viability, T/C (second compound 0.316 µM, first compound 0.00316 µM): 111%
viability, T/C (second compound 0.316 µM, first compound 0.01 µM): 108%
viability, T/C [9]: 99.7%
viability, T/C [10]: 108%
viability, T/C [11]: 108%
viability, T/C [12]: 64.2%
viability, T/C (second compound 1 µM, first compound 0.00316 µM): 117%
viability, T/C (second compound 1 µM, first compound 0.01 µM): 98.6%
viability, T/C [13]: 110%
viability, T/C [14]: 99.8%
viability, T/C [15]: 90.5%
viability, T/C [16]: 57.8%
viability, T/C (second compound 3.16 µM, first compound 0.00316 µM): 104%
viability, T/C (second compound 3.16 µM, first compound 0.01 µM): 102%
viability, T/C [17]: 113%
viability, T/C [18]: 103%
viability, T/C [19]: 97.2%
viability, T/C [20]: 67%
viability, T/C (second compound 10 µM, first compound 0.00316 µM): 105%
viability, T/C (second compound 10 µM, first compound 0.01 µM): 109%
viability, T/C [21]: 89.4%
viability, T/C [22]: 96.5%
viability, T/C [23]: 88.2%
viability, T/C [24]: 59.3%

CC1COCCN1c1cc(-c2ccnn2C)c2ccnc(-c3ccn[nH]3)c2n1 (stereo unspecified) + Cc1cccc(N(C)C(=O)C2C(O)CCN2c2nc(C)cc(C(F)(F)F)c2C#N)c1
IC50 (second compound 0.0316 µM): 246 nM
IC50 (second compound 0.1 µM): 217 nM
IC50 (second compound 0.316 µM): 297 nM
IC50 (second compound 1 µM): 221 nM
IC50 (second compound 3.16 µM): 158 nM
IC50 (second compound 10 µM): 153 nM
viability, T/C [1]: 95.1%
viability, T/C [2]: 73.4%
viability, T/C [3]: 42.1%
viability, T/C [4]: 31.5%
viability, T/C [25]: 27.3%
viability, T/C [26]: 22.5%
viability, T/C [5]: 77.4%
viability, T/C [6]: 77.2%
viability, T/C [7]: 36.9%
viability, T/C [8]: 30.4%
viability, T/C [27]: 20.2%
viability, T/C [28]: 19%
viability, T/C [9]: 104%
viability, T/C [10]: 73.5%
viability, T/C [11]: 48.6%
viability, T/C [12]: 30.8%
viability, T/C [29]: 23.6%
viability, T/C [30]: 14.6%
viability, T/C [13]: 111%
viability, T/C [14]: 73.1%
viability, T/C [15]: 38.2%
viability, T/C [16]: 28.2%
viability, T/C [31]: 22.1%
viability, T/C [32]: 19%
viability, T/C [17]: 82.8%
viability, T/C [18]: 59.1%
viability, T/C [19]: 36.5%
viability, T/C [20]: 24.6%
viability, T/C [33]: 24.7%
viability, T/C [34]: 20.1%
viability, T/C [21]: 76.4%
viability, T/C [22]: 59.1%
viability, T/C [23]: 34%
viability, T/C [24]: 29%
viability, T/C [35]: 20.7%
viability, T/C [36]: 19.4%

CC1COCCN1c1cc(C2(S(C)(=N)=O)CC2)nc(-c2ccnc3[nH]ccc23)n1 (stereo unspecified) + Cc1cccc(N(C)C(=O)C2C(O)CCN2c2nc(C)cc(C(F)(F)F)c2C#N)c1
IC50 (second compound 0.0316 µM): 6320 nM
IC50 (second compound 0.1 µM): 5320 nM
IC50 (second compound 0.316 µM): 7000 nM
IC50 (second compound 1 µM): 6250 nM
IC50 (second compound 3.16 µM): 4220 nM
IC50 (second compound 10 µM): 2670 nM
viability, T/C [1]: 105%
viability, T/C [2]: 99%
viability, T/C [3]: 87.2%
viability, T/C [4]: 79.6%
viability, T/C [25]: 66.4%
viability, T/C [26]: 39.4%
viability, T/C [5]: 108%
viability, T/C [6]: 103%
viability, T/C [7]: 91.1%
viability, T/C [8]: 80.1%
viability, T/C [27]: 61%
viability, T/C [28]: 36.7%
viability, T/C [9]: 99.1%
viability, T/C [10]: 97.4%
viability, T/C [11]: 91.6%
viability, T/C [12]: 96.6%
viability, T/C [29]: 66%
viability, T/C [30]: 42.8%
viability, T/C [13]: 93%
viability, T/C [14]: 92.5%
viability, T/C [15]: 104%
viability, T/C [16]: 94.3%
viability, T/C [31]: 70.9%
viability, T/C [32]: 35.6%
viability, T/C [17]: 90.4%
viability, T/C [18]: 92.7%
viability, T/C [19]: 100%
viability, T/C [20]: 92.3%
viability, T/C [33]: 54.4%
viability, T/C [34]: 36.8%
viability, T/C [21]: 93%
viability, T/C [22]: 92.7%
viability, T/C [23]: 93.8%
viability, T/C [24]: 63.7%
viability, T/C [35]: 52.7%
viability, T/C [36]: 37.9%
